According to patent US9415055B2, “Cyclic amines” (H. Lundbeck A/S, priority 2012, dated 2016):

The molecules below were run against P2X7 receptor (Homo sapiens (Human), UniProt Q99572) (assay: P2X7 FLIPR assay: antagonism of BzATP response in 293 HEK cells stably expressing P2X7 receptor). Conditions: FLIPR fluorescence (Fluo-4), agonist BzATP, 293 HEK cells stably transfected with P2X7 receptor.
Assay type: cell-based
How it was run: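 Antagonist IC50 derived from FLIPR Tetra Fluo-4 calcium signal evoked by BzATP. Compound pre-incubation was 30 min at room temperature on P2X7-expressing HEK293 cells, seeded 24 h before in low-serum medium and dye-loaded 30 min at 37 °C then 30 min at RT.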

P2X7 receptor, sequence (Q99572 whole entry): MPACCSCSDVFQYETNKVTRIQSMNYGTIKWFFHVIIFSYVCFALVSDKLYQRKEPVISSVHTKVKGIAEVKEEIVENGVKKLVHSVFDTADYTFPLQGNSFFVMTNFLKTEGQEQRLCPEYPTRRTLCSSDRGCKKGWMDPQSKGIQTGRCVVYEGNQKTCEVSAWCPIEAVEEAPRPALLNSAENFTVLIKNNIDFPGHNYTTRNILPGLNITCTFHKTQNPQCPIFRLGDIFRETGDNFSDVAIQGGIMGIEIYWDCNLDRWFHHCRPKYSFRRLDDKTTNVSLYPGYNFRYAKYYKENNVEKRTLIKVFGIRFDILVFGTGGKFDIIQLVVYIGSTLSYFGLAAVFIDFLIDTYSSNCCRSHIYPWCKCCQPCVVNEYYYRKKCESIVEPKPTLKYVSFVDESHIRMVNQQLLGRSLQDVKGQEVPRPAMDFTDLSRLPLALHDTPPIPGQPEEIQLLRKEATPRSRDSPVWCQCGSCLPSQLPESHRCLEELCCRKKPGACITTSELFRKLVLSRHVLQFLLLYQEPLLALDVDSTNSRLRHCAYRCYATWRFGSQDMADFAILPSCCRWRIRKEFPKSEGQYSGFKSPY

In order of rising IC50:
1. O=C(NCC(c1ccc(C(F)(F)F)nc1)N1CCC(F)(F)CC1)c1cccc(Cl)c1Cl (stereo not shown) [2,3-Dichloro-N-[2-(4,4-difluoro-1-piperidyl)-2-[6-(trifluoromethyl)-3-pyridyl]ethyl]benzamide]  1.3 nM
2. Cc1ccccc1C(=O)NCC(c1ccc(Cl)cc1)N1CCC(F)(F)CC1 (stereo not shown) [N-[2-(4-Chloro-phenyl)-2-(4,4-difluoro-piperidin-1-yl)-ethyl]-2-methyl-benzamide]  2 nM
3. O=C(NCC(c1cnc(C(F)(F)F)nc1)N1CCC(F)(F)CC1)c1cc(F)cc(Cl)c1Cl (single isomer, unassigned; (-)) [(−)2,3-dichloro-N-[2-(4,4-difluoro-1-piperidyl)-2-[2-(triflu] [(−)2,3-dichloro-5-fluoro-N-(2-(4,4-difluoropiperidin-1-yl)-2-(2-(trifluoromethyl)pyrimidin-5-yl)ethyl)benzamide]  2.2 nM
4. COc1ccc(C(=O)NCC(c2cnc(C(F)(F)F)nc2)N2CCC(F)(F)CC2)c(Cl)c1 (single isomer, unassigned; (-)) [(−)2-chloro-N-[2-(4,4-difluoro-1-piperidyl)-2-[2-(trifluorom] [(−)2-chloro-4-methoxy-N-(2-(4,4-difluoropiperidin-1-yl)-2-(2-(trifluoromethyl)pyrimidin-5-yl)ethyl)benzamide]  2.2 nM
5. Cc1ncc(C(CNC(=O)c2cccc(Cl)c2Cl)N2CCC(F)(F)CC2)cn1 (stereo not shown) [2,3-dichloro-N-[2-(4,4-difluoro-1-piperidyl)-2-(2-methylpyri] [2,3-dichloro-N-(2-(4,4-difluoropiperidin-1-yl)-2-(2-methylpyrimidin-5-yl)ethyl)benzamide]  4.3 nM
6. O=C(NCC(c1cnc(C(F)(F)F)nc1)N1CCC(F)(F)CC1)c1ccc(Cl)cc1Cl (single isomer, unassigned; (+)) [(+)2,4-dichloro-N-[2-(4,4-difluoro-1-piperidyl)-2-[2-(triflu] [(+)2,4-dichloro-N-(2-(4,4-difluoropiperidin-1-yl)-2-(2-(trifluoromethyl)pyrimidin-5-yl)ethyl)benzamide]  5.6 nM
7. O=C(NCC(c1cnc(C(F)(F)F)nc1)N1CCC(F)(F)CC1)c1c(F)cc(Cl)cc1Cl (single isomer, unassigned; (-)) [(−)2,4-dichloro-N-[2-(4,4-difluoro-1-piperidyl)-2-[2-(triflu] [(−)2,4-dichloro-6-fluoro-N-(2-(4,4-difluoropiperidin-1-yl)-2-(2-(trifluoromethyl)pyrimidin-5-yl)ethyl)benzamide]  6.5 nM
8. O=C(NCC(c1cnc(C(F)(F)F)nc1)N1CCC(F)(F)CC1)c1c(F)cccc1Cl (single isomer, unassigned; (-)) [(−)2-chloro-N-[2-(4,4-difluoro-1-piperidyl)-2-[2-(trifluorom] [(−)2-chloro-6-fluoro-N-(2-(4,4-difluoropiperidin-1-yl)-2-(trifluoromethyl)pyrimidin-5-yl)ethyl)benzamide]  8.2 nM
9. O=C(NCC(c1ccc(C(F)F)nc1)N1CCC(F)(F)CC1)c1c(Cl)cccc1Cl (single isomer, unassigned; (+)) [(+)2,6-dichloro-N-[2-[6-(difluoromethyl)-3-pyridyl]-2-(4,4-d] [(+)2,6-dichloro-N-(2-(2-(difluoromethyl)pyridin-5-yl)-2-(4,4-difluoropiperidin-1-yl)ethyl)benzamide]  8.7 nM
10. COc1ccc(F)c(C(=O)NCC(c2cnc(C(F)(F)F)nc2)N2CCC(F)(F)CC2)c1Cl (single isomer, unassigned; (+)) [(+)2-chloro-N-[2-(4,4-difluoro-1-piperidyl)-2-[2-(trifluorom] [(+)2-chloro-N-(2-(4,4-difluoropiperidin-1-yl)-2-(2-(trifluoromethyl)pyrimidin-5-yl)ethyl)-6-fluoro-3-methoxybenzamide]  8.9 nM
11. O=C(NCC(c1ccc(F)cc1)N1CCOCC1)c1cccc(Cl)c1Cl (stereo not shown) [2,3-Dichloro-N-[2-(4-fluoro-phenyl)-2-morpholin-4-yl-ethyl]-benzamide]  11 nM
12. O=C(NCC(c1cnc(C(F)(F)F)nc1)N1CCOCC1)c1cccc(F)c1Cl (stereo not shown) [2-chloro-3-fluoro-N-(2-morpholino-2-(2-(trifluoromethyl)pyrimidin-5-yl)ethyl)benzamide]  11 nM
13. COc1cccc(C(=O)NCC(c2cnc(C)nc2)N2CCC(F)(F)CC2)c1Cl (single isomer, unassigned; (+)) [(+)2-chloro-N-[2-(4,4-difluoro-1-piperidyl)-2-(2-methylpyrim] [(+)2-chloro-3-methoxy-N-(2-(4,4-difluoropiperidin-1-yl)-2-(2-methylpyrimidin-5-yl)ethyl)benzamide]  12 nM
14. Cc1ncc(C(CNC(=O)c2cccc(F)c2Cl)N2CCC(F)(F)CC2)cn1 (single isomer, unassigned; (-)) [(−)2-chloro-N-[2-(4,4-difluoro-1-piperidyl)-2-(2-methylpyrim] [(−)2-chloro-3-fluoro-N-(2-(4,4-difluoropiperidin-1-yl)-2-(2-methylpyrimidin-5-yl)ethyl)benzamide]  19 nM
15. Cc1ncc(C(CNC(=O)c2cccc(Cl)c2Cl)N2CCOCC2)cn1 (stereo not shown) [2,3-dichloro-N-[2-(2-methylpyrimidin-5-yl)-2-morpholino-ethy] [2,3-Dichloro-N-[2-(2-methylpyrimidin-5-yl)-2-motpholino-ethyl]benzamide]  21 nM
16. Cc1ncc(C(CNC(=O)c2ccccc2Cl)N2CCC(F)(F)CC2)cn1 (single isomer, unassigned; (-)) [(−)2-chloro-N-[2-(4,4-difluoro-1-piperidyl)-2-(2-methylpyrim] [(−)2-chloro-N-[2-(4,4-difluoro-1-piperidyl)-2-(2-methylpyrimidin-5-yl)ethyl]benzamide]  24 nM
17. CCc1ncc(C(CNC(=O)c2c(Cl)cccc2Cl)N2CCC(F)(F)CC2)cn1 (single isomer, unassigned; (-)) [(−)2,6-dichloro-N-[2-(4,4-difluoro-1-piperidyl)-2-(2-ethylpy] [(−)2,6-dichloro-N-(2-(4,4-difluoropiperidin-1-yl)-2-(2-ethylpyrimidin-5-yl)ethyl)benzamide]  27 nM
18. O=C(NCC(c1ccc(C(F)(F)F)nc1)N1CCOCC1)c1c(F)cccc1F (single isomer, unassigned; (+)) [(+)2,6-difluoro-N-[2-morpholino-2-[6-(trifluoromethyl)-3-pyr] [(+)2,6-Difluoro-N-[2-morpholino-2-[6-(trifluoromethyl)-3-pyridyl]ethyl]benzamide]  29 nM
19. O=C(NCC(c1cnc(C(F)(F)F)nc1)N1CCOCC1)c1ccccc1Cl (single isomer, unassigned; (+)) [(+)2-chloro-N-[2-morpholino-2-[2-(trifluoromethyl)pyrimidin-] [(+)2-Chloro-N-[2-morpholino-2-[2-(trifluoromethyl)pyrimidin-5-yl]ethyl]benzamide]  30 nM
20. CC(C)S(=O)(=O)c1ccc(Cl)c(C(=O)NCC(c2ccc(Cl)cc2)N2CCOCC2)c1 (single isomer, unassigned; (-)) [(−)2-chloro-N-(2-(4-chlorophenyl)-2-morpholinoethyl)-5-(isopropylsulfonyl)benzamide]  47 nM
21. CS(=O)(=O)c1ccc(Cl)c(C(=O)NCC(c2ccc(C(F)(F)F)nc2)N2CCOCC2)c1 (single isomer, unassigned; (-)) [(−)2-chloro-5-methylsulfonyl-N-[2-morpholino-2-[6-(trifluoro] [(−)2-chloro-5-(methylsulfonyl)-N-(2-morpholino-2-(6-(trifluoromethyl)pyridin-3-yl)ethyl)benzamide]  51 nM
22. O=C(NCC(c1cnc(C(F)F)nc1)N1CCOCC1)c1ccccc1Cl (single isomer, unassigned; (+)) [(+)2-chloro-N-[2-[2-(difluoromethyl)pyrimidin-5-yl]-2-morpho] [(+)2-chloro-N-(2-(2-(difluoromethyl)pyrimidin-5-yl)-2-morpholinoethyl)benzamide]  60 nM
23. CS(=O)(=O)c1ccc(Cl)c(C(=O)NCC(c2ccc(Cl)cc2)N2CCOCC2)c1 (single isomer, unassigned; (-)) [(−)2-chloro-N-[2-(4-chlorophenyl)-2-morpholino-ethyl]-5-meth] [(−)2-chloro-N-(2-(4-chlorophenyl)-2-morpholinoethyl)-5-(methylsulfonyl)benzamide]  65 nM
24. Cc1ncc(C(CNC(=O)c2cccc(F)c2Cl)N2CCCC(F)(F)C2)cn1 (single isomer, unassigned; (+)) [(+)2-chloro-N-[2-(3,3-difluoro-1-piperidyl)-2-(2-methylpyrim] [(+)2-chloro-3-fluoro-N-(2-(3,3-difluoropiperidin-1-yl)-2-(2-methylpyrimidin-5-yl)ethyl)benzamide]  100 nM
25. CS(=O)(=O)c1ccc(Cl)c(C(=O)NCC(c2ccc(Cl)cc2)N2CCOCC2)c1 (single isomer, unassigned; (+)) [(+)2-chloro-N-[2-(4-chlorophenyl)-2-morpholino-ethyl]-5-meth] [(+)2-chloro-N-(2-(4-chlorophenyl)-2-morpholinoethyl)-5-(methylsulfonyl)benzamide]  180 nM
26. Cc1ncc(C(CNC(=O)c2cccc(Cl)c2Cl)N2CCCCC2C)cn1 (stereo not shown) [2,3-dichloro-N-(2-(2-methylpiperidin-1-yl)-2-(2-methylpyrimidin-5-yl)ethyl)benzamide]  310 nM
27. Cc1ncc(C(CNC(=O)c2cccc(F)c2Cl)N2CCCOCC2)cn1 (stereo not shown) [2-chloro-3-fluoro-N-(2-(2-methylpyrimidin-5-yl)-2-(1,4-oxazepan-4-yl)ethyl)benzamide]  330 nM
28. Cc1ccc(Cl)c(C(=O)NCC(c2cccnc2)N2CCOCC2)c1 (stereo not shown) [2-Chloro-5-methyl-N-(2-morpholin-4-yl-2-pyridin-3-yl-ethyl)-benzamide]  3000 nM
